Source: publication PMC6102326, “Characterization of an Omega-3 Desaturase From Phytophthora parasitica and Application for Eicosapentaenoic Acid Production in Mortierella alpina” (Frontiers in Microbiology, 2018)

Target: T1, PPD17 (omega-3 desaturase; delta-17 desaturase) (Phytophthora nicotianae, UniProt V9F8I2)
T1 construct: gene F443_08426; full length, 361 residues, codon-optimized oPPD17 in pYES2/NT C (His-tagged), expressed in S. cerevisiae INVSc1; 4 predicted TM domains; C-terminal KTKST; His boxes HDAGH, HRHHH, HQIHH
T1 sequence (V9F8I2 1-361): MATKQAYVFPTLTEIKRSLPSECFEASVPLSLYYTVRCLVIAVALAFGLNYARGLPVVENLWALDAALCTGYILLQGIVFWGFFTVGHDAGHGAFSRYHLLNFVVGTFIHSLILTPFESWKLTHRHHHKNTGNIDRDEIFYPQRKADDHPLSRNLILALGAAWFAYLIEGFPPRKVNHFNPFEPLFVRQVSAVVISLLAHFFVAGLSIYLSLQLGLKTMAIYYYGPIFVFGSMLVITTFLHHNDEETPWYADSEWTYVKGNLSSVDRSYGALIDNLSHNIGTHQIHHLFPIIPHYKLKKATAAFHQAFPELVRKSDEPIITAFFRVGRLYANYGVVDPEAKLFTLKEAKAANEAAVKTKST
Assay: fatty acid feeding of yeast expressing PPD17, FAME analysis by GC-MS
Assay type: cell-based
Conditions: free acid fed to culture, 0.2 mM, 12 °C and 28 °C; product eicosatetraenoic acid

**Q.** For CCCCC/C=C\C/C=C\C/C=C\CCCCCCC(=O)O [DGLA, dihomo-gamma-linolenic acid], which “fatty acid feeding of yeast expressing PPD17, FAME analysis by GC-MS” value is on record?
**A.** Its value is “PPD17 had stronger substrate preference for C20-PUFA substrate AA and DGLA”.
